The values below come from paper PMC5481817, “Developing Targeted Hybrid Imaging Probes by Chelator Scaffolding” (Bioconjugate chemistry, 2017).

One assay addresses T1, integrin αvβ3 (Homo sapiens, UniProt P05106+P06756).
T1 construct: endogenous in cells; host or cells: human melanoma M21 cells (gift from D. A. Cheresh)
In words: Integrin binding affinity assay (displacement of [125I]-c(RGDyV)) on M21 cells. The conditions noted are these: metal-free conjugate or reference peptide, radioligand [125I]-c(RGDyV), 2 h RT. How it is done: Receptor binding affinities were evaluated via a displacement cell-binding assay for metal free as well as metal bound ([^natGa]) conjugates. Binding of nonradioactive gallium was performed in analogy to the radiolabeling procedure but instead of the generator eluate a 100-fold molar excess of gallium bromide (GaBr3) dissolved in 100 μL 0.1 N HCl was used. Cells were prepared as described below and incubated with increasing concentrations [0.001–1000 nM] of competitor in triplicate. After addition of corresponding iodinated radioligand the 96-well MulitScreen Filter Plates HTS (1 μm glass fiber filter, Merck Millipore, Darmstadt, Germany) were incubated for 1 or 2 h at RT under shaking conditions (Compact shaker KS-15 control, 200/min) and after a washing step the remaining activity on the filter was measured in the γ-counter. The receptor affinity of DOTA-minigastrin11 as well as c(RGDyV) were determined under the corresponding conditions as a reference. IC50 values were calculated by using nonlinear curve fitting with following formula NS+SB/(1+x/IC50) on Origin 6.1 software (Northampton, MA, USA). A detailed description regarding iodination can be found in the Supporting Information.
Integrin binding affinity assay was adapted from Yun Wu et al.[31] Briefly, M21 cells were washed two times with phosphate buffered saline followed by suspension in binding buffer (=20 mM TRIS pH 7.4 + 150 mM NaCl + 2 mM CaCl2 + 1 mM MgCl2 + 1 mM MnCl2 0.1% BSA). 96-well plates were washed with 200 μL of 20 mM TRIS-buffer and seeded with 1 × 10^6 cells/well (10^7 cells/mL). After 10 min of incubation in the presence of the competitor {([^natGa])Sulfo-Cy7-FSC-RGD or c(RGDyV) diluted in binding buffer)} volume was adjusted to 200 μL/well by adding 50 μL of radioligand ([^125I]-c(RGDyV), 4.5 × 10^4 cpm) and the plate was left for 2 h at RT. Finally the supernatant was removed by vacuum and each well was washed three times with 200 μL ice-cold binding buffer.
For orientation: Loss of bound radioactivity is the signal in a displacement assay; it reports binding, not function.

The subject of assay [1] is M21 (αvβ3-positive) cells. In words: Fluorescence measured cell specificity, M21. In kind it is cell-based, human. The note with it: 2 h incubation, 3 nM ligand. How it is done: (§1) Fluorescence assays were conducted similarly to the internalization assays except for using lower cell numbers and determining only the cellbound fraction. Briefly, A431-CCK2R, M21, and M21-L cells were diluted in corresponding media to a density of 2 × 10^6 cells/mL. Aliquots of 0.5 mL were transferred to Eppendorf tubes—six technical replicates for A431-CCK2R unblocked and blocked and M21/M21-L, respectively—and treated in the same manner as described above. The nonradiolabeled particular ligand was added to a final concentration of 3 nM and the tubes were kept in an incubator (Incubator hood TH15 and Compact shaker KS-15 control, Edmund Bühler GmbH, Hechingen, Germany) at 37 °C for 2 h under vigorously shaking (420/min). After centrifugation (2 min, 5000 rpm) washing steps were performed as mentioned before. […] Fluorescence intensity was measured with Tecan Infinite 200 PRO series multiplate reader (Tecan Trading AG, Switzerland) by using Tecan Icontrol 1.1 software. Parameters were set as follows: Fluorescence Top reading; excitation/emission wavelength 740/790 nm; excitation bandwidth 9 nm; emission bandwidth 20 nm; gain optimal; number of flashes 25; integration time 25 μs. Results were calculated and expressed as percentage of cell-bound fluorescence in relation to the standards sample.

Assay [2] relates to M21-L (αvβ3-negative) cells. Kind of assay: Fluorescence measured cell specificity, M21-L. In kind it is cell-based, human. The conditions noted are these: 2 h incubation, 3 nM ligand. How it is done:
as §1

Assay [3] concerns mice bearing U-87MG tumor xenografts. Kind of assay: Near-infrared fluorescence imaging, U-87MG xenografts. In kind it is in vivo, mouse. How it is done: All animal experiments were conducted in accordance with regulations and guidelines of the Czech Animal Protection Act (No. 246/1992), and with the approval of the Czech Ministry of Education, Youth, and Sports (MSMT-22421/2013–12), and the institutional Animal Welfare Committee of the Faculty of Medicine and Dentistry of Palacky University in Olomouc. The studies were performed using female 8–10-week-old athymic BALB/c nude mice (Envigo, Horst, The Netherlands). […]
Tumor xenografts were established near the front shoulder of mice by subcutaneous injection of 5 × 10^6 cells (U-87 MG) or 2 × 10^6 cells (A431-CCK2R) and the same amount of A431-mock cells as a control in 200 μL appropriate medium and Matrigel (1:1). […] Tumors, blood, muscle tissue, and organs were extracted, weighed, and activity uptake of the samples was measured in the gamma counter. Results were expressed as percentage of injected dose per gram tissue (% ID/g). […] After reconstruction, acquired data was viewed and analyzed with PMOD software (PMOD Technologies Ltd., Zurich, Switzerland). […] Near-infrared in vivo fluorescence imaging was performed with an In-Vivo MS FX PRO small animal imaging system (Bruker Biospin Corporation, Woodbridge, CT, USA). […] An appropriate filter set (excitation = 730 nm and emission = 790 nm) was used for acquiring the Sulfo-Cy7-FSC-peptide - fluorescence in vivo. […]

In another assay the target is T2, human CCK-2 receptor (Homo sapiens, UniProt P32239).
T2 construct: expressed in transfected cells; host or cells: A431 human squamous carcinoma cells (gift from L. Aloj)
T2 sequence (P32239 1-447): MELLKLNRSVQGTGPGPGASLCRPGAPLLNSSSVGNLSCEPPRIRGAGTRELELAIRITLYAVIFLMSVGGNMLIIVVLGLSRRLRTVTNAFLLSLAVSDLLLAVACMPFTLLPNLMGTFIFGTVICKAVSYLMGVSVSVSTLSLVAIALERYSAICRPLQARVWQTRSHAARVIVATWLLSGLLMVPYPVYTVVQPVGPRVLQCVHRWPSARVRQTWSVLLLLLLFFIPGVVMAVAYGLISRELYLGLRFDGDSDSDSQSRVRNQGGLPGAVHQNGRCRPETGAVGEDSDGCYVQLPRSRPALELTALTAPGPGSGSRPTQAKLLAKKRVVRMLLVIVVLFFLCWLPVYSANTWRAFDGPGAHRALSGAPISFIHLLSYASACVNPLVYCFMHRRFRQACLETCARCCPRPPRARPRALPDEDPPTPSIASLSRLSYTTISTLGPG
More on the design: method as in unpublished data. The note with it: comparison value, slight variances in experimental setting; ref unpublished data; cited from earlier work.

T1 sequence (P06756 31-889 limits assumed): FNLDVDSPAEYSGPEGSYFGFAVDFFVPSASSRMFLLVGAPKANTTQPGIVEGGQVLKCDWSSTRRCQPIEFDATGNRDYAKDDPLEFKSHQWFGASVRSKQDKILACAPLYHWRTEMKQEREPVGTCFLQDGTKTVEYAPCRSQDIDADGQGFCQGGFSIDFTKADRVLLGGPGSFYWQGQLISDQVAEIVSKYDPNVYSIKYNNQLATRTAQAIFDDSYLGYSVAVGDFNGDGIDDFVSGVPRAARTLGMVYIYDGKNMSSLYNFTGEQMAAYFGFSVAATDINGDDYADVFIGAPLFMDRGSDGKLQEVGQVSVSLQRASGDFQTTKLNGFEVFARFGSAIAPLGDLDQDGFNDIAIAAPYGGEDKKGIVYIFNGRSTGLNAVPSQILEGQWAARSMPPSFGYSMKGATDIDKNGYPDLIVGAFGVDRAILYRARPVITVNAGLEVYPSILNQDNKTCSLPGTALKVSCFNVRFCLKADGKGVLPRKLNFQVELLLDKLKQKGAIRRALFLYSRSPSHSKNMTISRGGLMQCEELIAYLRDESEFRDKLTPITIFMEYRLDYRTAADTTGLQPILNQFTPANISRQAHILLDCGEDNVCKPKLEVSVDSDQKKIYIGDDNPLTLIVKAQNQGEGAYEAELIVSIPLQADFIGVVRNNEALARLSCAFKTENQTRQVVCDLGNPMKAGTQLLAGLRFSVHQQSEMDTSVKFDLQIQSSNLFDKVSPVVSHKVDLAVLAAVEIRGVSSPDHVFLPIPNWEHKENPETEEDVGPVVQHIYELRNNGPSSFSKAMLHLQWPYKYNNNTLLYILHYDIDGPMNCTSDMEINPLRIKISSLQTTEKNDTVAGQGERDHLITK
T1 sequence (P06756 891-1048 partner limits assumed): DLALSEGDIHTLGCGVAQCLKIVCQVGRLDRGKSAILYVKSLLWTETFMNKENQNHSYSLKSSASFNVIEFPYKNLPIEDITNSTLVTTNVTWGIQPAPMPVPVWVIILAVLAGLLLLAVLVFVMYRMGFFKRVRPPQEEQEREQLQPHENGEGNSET
T1 sequence (P05106 27-788): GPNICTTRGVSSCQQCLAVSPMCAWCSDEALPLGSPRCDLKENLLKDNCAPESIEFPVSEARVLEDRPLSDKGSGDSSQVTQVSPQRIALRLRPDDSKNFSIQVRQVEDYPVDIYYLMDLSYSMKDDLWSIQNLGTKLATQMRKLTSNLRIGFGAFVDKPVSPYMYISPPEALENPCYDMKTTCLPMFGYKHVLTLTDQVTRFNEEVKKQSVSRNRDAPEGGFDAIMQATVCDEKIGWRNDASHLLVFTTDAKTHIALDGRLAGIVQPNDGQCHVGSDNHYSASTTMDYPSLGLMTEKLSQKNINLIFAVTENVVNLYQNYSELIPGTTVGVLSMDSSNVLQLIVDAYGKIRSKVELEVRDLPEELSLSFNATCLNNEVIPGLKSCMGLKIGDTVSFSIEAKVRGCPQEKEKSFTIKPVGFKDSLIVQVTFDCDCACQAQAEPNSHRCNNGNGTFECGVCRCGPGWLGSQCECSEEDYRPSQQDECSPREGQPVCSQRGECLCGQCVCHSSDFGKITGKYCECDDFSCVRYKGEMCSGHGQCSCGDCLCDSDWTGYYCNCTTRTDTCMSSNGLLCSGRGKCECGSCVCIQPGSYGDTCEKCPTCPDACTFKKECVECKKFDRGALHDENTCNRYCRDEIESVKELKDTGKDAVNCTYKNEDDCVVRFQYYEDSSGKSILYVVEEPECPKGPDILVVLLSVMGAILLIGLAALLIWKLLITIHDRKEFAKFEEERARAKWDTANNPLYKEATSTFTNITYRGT

As for `CC1=CC(=O)N(O)CCCC(NC(=O)CCN2C(=O)CC(SCCOCCOCCOCCOCCC(=O)NCCCC[C@@H]3NC(=O)[C@@H](Cc4ccccc4)NC(=O)[C@H](CC(=O)O)NC(=O)CNC(=O)[C@H](CCCNC(=N)N)NC3=O)C2=O)C(=O)OCCC(C)=CC(=O)N(O)CCCC(NC(=O)CCN2C(=O)CC(SCCOCCOCCOCCOCCC(=O)NCCCC[C@@H]3NC(=O)[C@@H](Cc4ccccc4)NC(=O)[C@H](CC(=O)O)NC(=O)CNC(=O)[C@H](CCCNC(=N)N)NC3=O)C2=O)C(=O)OCCC(C)=CC(=O)N(O)CCCC(NC(=O)CCCCC[N+]2=C(C=CC3=CC(=CC=C4N(C)c5ccc(S(=O)(=O)O)cc5C4(C)C)CCC3)C(C)(C)c3cc(S(=O)(=O)[O-])ccc32)C(=O)OCC1` (stereo partly drawn) [Sulfo-Cy7-FSC-RGD, Sulfo-Cyanine7-FSC-(mal-c(RGDfK)-(PEG4))2], at integrin αvβ3, the IC50 (commonly the concentration that inhibits the measured activity by half) is 1.13 ± 0.22 nM. In addition, the figures for the Fluorescence-determined cell uptake in assay [1] and in assay [2] were 5.79 ± 0.88% and 1.74 ± 0.25%, respectively. Further, in assay [3] (after administration), the “time of best contrast in fluorescence imaging” value was found to be 24 h. In addition, the “tumor retention in fluorescence imaging” value in assay [3] (two days after injection) is on record as “completely washed out from tumor tissue”.

In the case of “nonfluorescent divalent FSC-MG derivative: nonfluorescent divalent FSC-MG derivative, authors' unpublished data used for comparison (EAYGWMDF; Synthetic minigastrin analogue MG11, converted from the printed [D-Glu1,desGlu2-6]-Ala-Tyr-Gly-Trp-Met-Asp-Phe-NH2; Glu1 is D-Glu; C-terminal amide; Two peptides on one Fusarinine C chelator, no fluor)”, in the assay with human CCK-2 receptor, the 50% inhibitory concentration (IC50) was 0.9 ± 0.2 nM.
